This passage reports IC50 results from patent US12577257B2, “Heterocyclic compounds” (Hoffmann-La Roche Inc., priority 2018, dated 2026).

The structures appear in SMILES notation.

The experiment has as its target T1, MAGL (Homo sapiens, UniProt Q99685).
T1 sequence (Q99685 1-303): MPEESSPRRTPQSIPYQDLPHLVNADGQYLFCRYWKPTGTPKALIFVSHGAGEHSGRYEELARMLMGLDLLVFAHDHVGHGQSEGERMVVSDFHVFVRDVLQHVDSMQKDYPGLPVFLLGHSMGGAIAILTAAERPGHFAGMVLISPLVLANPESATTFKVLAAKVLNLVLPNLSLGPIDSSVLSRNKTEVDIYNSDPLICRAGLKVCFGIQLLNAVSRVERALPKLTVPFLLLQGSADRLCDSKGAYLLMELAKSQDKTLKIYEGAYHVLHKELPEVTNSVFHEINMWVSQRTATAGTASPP
Briefly: MAGL inhibition, Table 1 values with no assay marker (2-AG or 4-NPA assay not stated). The format is biochemical. Here is the method:
Compounds were profiled for MAGL inhibitory activity by measuring the enzymatic activity of MAGL by following the hydrolysis of 4-nitrophenylacetate resulting in 4-nitrophenol, which absorbs at 405-412 nm (G. G. Muccioli, G. Labar, D. M. Lambert, Chem. Bio. Chem. 2008, 9, 2704-2710). This assay is hereinafter abbreviated “4-NPA assay”.
The 4-NPA assay was carried out in 384 well assay plates (black with clear bottom, non-binding surface treated, Corning Ref. 3655) in a total volume of 40 μL. Compound dilutions were made in 100% DMSO (VWR Chemicals 23500.297) in a polypropylene plate in 3-fold dilution steps to give a final concentration range in the assay from 25 μM to 1.7 nM. 1 μL compound dilutions (100% DMSO) were added to 19 μL MAGL (recombinant wild-type) in assay buffer (50 mM TRIS (GIBCO, 15567-027), 1 mM EDTA (Fluka, 03690-100 ml)). The plate was shaked for 1 min at 2000 rpm (Variomag Teleshake) and then incubated for 15 min at RT. To start the reaction, 20 μL 4-Nitrophenylacetate (Sigma N-8130) in assay buffer with 6% EtOH was added. The final concentrations in the assay were 1 nM MAGL and 300 μM 4-Nitrophenylacetate. After shaking (1 min, 2000 rpm) and 5 min incubation at RT, the absorbance at 405 nm was measured for a first time (Molecular Devices, SpectraMax Paradigm). A second measurement was then done after incubation for 80 min at RT. From the two measurements, the slope was calculated by subtracting the first from the second measurement.
Alternatively, compounds were profiled for MAGL inhibitory activity by determining the enzymatic activity by following the hydrolysis of the natural substrate 2-arachidonoylglycerol resulting in arachidonic acid, which can be followed by mass spectrometry. This assay is hereinafter abbreviated “2-AG assay”.
The 2-AG assay was carried out in 384 well assay plates (PP, Greiner Cat #784201) in a total volume of 20 μL. Compound dilutions were made in 100% DMSO (VWR Chemicals 23500.297) in a polypropylene plate in 3-fold dilution steps to give a final concentration range in the assay from 12.5 μM to […]. 0.25 μL compound dilutions (100% DMSO) were added to 9 μL MAGL in assay buffer (50 mM TRIS (GIBCO, 15567-027), 1 mM EDTA (Fluka, 03690-100 ml), 0.01% (v/v) Tween. After shaking, the plate was incubated for 15 min at RT. To start the reaction, 10 μL 2-arachidonoylglycerol in assay buffer was added. The final concentrations in the assay was […] and 8 μM 2-arachidonoylglycerol. After shaking and 30 min incubation at RT, the reaction was quenched by the addition of 40 μL of acetonitrile containing 4 μM of d8-arachidonic acid. The amount of arachidonic acid was traced by an online SPE system (Agilent Rapidfire) coupled to a triple quadrupole mass spectrometer (Agilent 6460). A C18 SPE cartridge (G9205A) was used in an acetonitrile/water liquid setup. The mass spectrometer was operated in negative electrospray mode following the mass transitions 303.1→259.1 for arachidonic acid and 311.1→267.0 for d8-arachidonic acid. The activity of the compounds was calculated based on the ratio of intensities [arachidonic acid/d8-arachidonic acid].

For `O=C1CO[C@H]2CCN(C(=O)N3CC4(C3)CC(OCc3ccc(C(F)(F)F)cc3F)(C(F)(F)F)C4)C[C@H]2N1` [Example 44, (4aR,8aS)-6-(6-((2-fluoro-4-(trifluoromethyl)benzyl)oxy)-6-(trifluoromethyl)-2-azaspiro[3.3]heptane-2-carbonyl)hexahydro-2H-pyrido[4,3-b][1,4]oxazin-3(4H)-one], half-maximal inhibition (IC50) required 185 nM. As to `O=C1CO[C@H]2CCN(C(=O)N3CC4(CC(c5ccc(C(F)(F)F)cc5F)C4)C3)C[C@H]2N1` [Example 45, (4aR,8aS)-6-(6-(2-fluoro-4-(trifluoromethyl)phenyl)-2-azaspiro[3.3]heptane-2-carbonyl)hexahydro-2H-pyrido[4,3-b][1,4]oxazin-3(4H)-one], the IC50 – broadly, the point on the concentration scale where inhibition reaches its midpoint – was 37 nM.

Compound `O=C1CO[C@H]2CCN(C(=O)N3CC4(CC(c5ccc(S(F)(F)(F)(F)F)cc5)C4)C3)C[C@H]2N1` [Example 46, (4aR,8aS)-6-(6-(4-(pentafluoro-l6-sulfaneyl)phenyl)-2-azaspiro[3.3]heptane-2-carbonyl)hexahydro-2H-pyrido[4,3-b][1,4]oxazin-3(4H)-one] showed a half-inhibitory concentration (IC50) of 14.5 nM. The compound `O=C1CO[C@H]2CCN(C(=O)N3CC4(CC(c5ccc(N6CCCC6C(F)(F)F)cc5)C4)C3)C[C@H]2N1` (stereo partly drawn) [Example 47, (4aR,8aS)-6-(6-(4-(2-(trifluoromethyl)pyrrolidin-1-yl)phenyl)-2-azaspiro[3.3]heptane-2-carbonyl)hexahydro-2H-pyrido[4,3-b][1,4]oxazin-3(4H)-one] registered a concentration for half-maximal inhibition (IC50) of 39.8 nM. Under `Cn1nccc1-c1ccc(C2CC3(C2)CN(C(=O)N2CC[C@@H]4OCC(=O)N[C@@H]4C2)C3)cc1` [Example 48, (4aR,8aS)-6-(6-(4-(1-methyl-1H-pyrazol-5-yl)phenyl)-2-azaspiro[3.3]heptane-2-carbonyl)hexahydro-2H-pyrido[4,3-b][1,4]oxazin-3(4H)-one] stands 223 nM; under `O=C1CO[C@H]2CCN(C(=O)N3CC4(CC(Cc5ccc(C(F)(F)F)cc5F)C4)C3)C[C@H]2N1` [Example 49, (4aR,8aS)-6-(6-(2-fluoro-4-(trifluoromethyl)benzyl)-2-azaspiro[3.3]heptane-2-carbonyl)hexahydro-2H-pyrido[4,3-b][1,4]oxazin-3(4H)-one], 0.03 nM. Take `O=C1CO[C@H]2CCN(C(=O)N3CC4(CC(Cc5ccc(F)cc5Cl)C4)C3)C[C@H]2N1` [Example 50, (4aR,8aS)-6-(6-(2-chloro-4-fluorobenzyl)-2-azaspiro[3.3]heptane-2-carbonyl)hexahydro-2H-pyrido[4,3-b][1,4]oxazin-3(4H)-one]: the IC50 stood at 0.04 nM. In turn, `O=C1CO[C@H]2CCN(C(=O)N3CC4(CC(Cc5ccc(F)cc5F)C4)C3)C[C@H]2N1` [Example 51, (4aR,8aS)-6-(6-(2,4-difluorobenzyl)-2-azaspiro[3.3]heptane-2-carbonyl)hexahdyro-2H-pyrido[4,3-b][1,4]oxazin-3(4H)-one] came in with an IC50 of 0.17 nM.

As to `COc1cc(C(F)(F)F)ccc1CC1CC2(C1)CN(C(=O)N1CC[C@@H]3OCC(=O)N[C@@H]3C1)C2` [Example 52, (4aR,8aS)-6-(6-(2-methoxy-4-(trifluoromethyl)benzyl)-2-azaspiro[3.3]heptane-2-carbonyl)hexahydro-2H-pyrido[4,3-b][1,4]oxazin-3(4H)-one], the half-maximal inhibitory concentration (IC50) was determined as 0.03 nM. Regarding `O=C1CO[C@H]2CCN(C(=O)N3CC4(CC(Cc5c(F)cccc5C(F)(F)F)C4)C3)C[C@H]2N1` [Example 53, (4aR,8aS)-6-(6-(2-fluoro-6-(trifluoromethyl)benzyl)-2-azaspiro[3.3]heptane-2-carbonyl)hexahydro-2H-pyrido[4,3-b][1,4]oxazin-3(4H)-one], the IC50 is 0.05 nM. `O=C1CO[C@H]2CCN(C(=O)N3CC4(CC(COc5ccc(F)cc5Cl)C4)C3)C[C@H]2N1` [Example 54, (4aR,8aS)-6-(6-((2-chloro-4-fluorophenoxy)methyl)-2-azaspiro[3.3]heptane-2-carbonyl)hexahydro-2H-pyrido[4,3-b][1,4]oxazin-3(4H)-one] yielded an IC50 of 1.46 nM. As for `O=C1CO[C@H]2CCN(C(=O)N3CC4(C3)CN(c3ccc(C(F)(F)F)cc3)C4)C[C@H]2N1` [Example 55, (4aR,8aS)-6-(6-(4-(trifluoromethyl)phenyl)-2,6-diazaspiro[3.3]heptane-2-carbonyl)hexahydro-2H-pyrido[4,3-b][1,4]oxazin-3(4H)-one], the IC50 is 1040 nM. As to `O=C1CO[C@H]2CCN(C(=O)N3CC4(C3)CN(c3cccc(C(F)(F)F)c3)C4)C[C@H]2N1` [Example 56, (4aR,8aS)-6-(6-(3-(trifluoromethyl)phenyl)-2,6-diazaspiro[3.3]heptane-2-carbonyl)hexahydro-2H-pyrido[4,3-b][1,4]oxazin-3(4H)-one], the concentration for half-maximal inhibition (IC50) was 361 nM. Regarding `O=C1CO[C@H]2CCN(C(=O)N3CCC4(C3)CN(c3ccc(C(F)(F)F)cc3)C4)C[C@H]2N1` [Example 57, (4aR,8aS)-6-(2-(4-(trifluoromethyl)phenyl)-2,6-diazaspiro[3.4]octane-6-carbonyl)hexahydro-2H-pyrido[4,3-b][1,4]oxazin-3(4H)-one], the IC50 is 175 nM. Regarding `O=C1CO[C@H]2CCN(C(=O)N3CCC4(C3)CN(c3cccc(C(F)(F)F)c3)C4)C[C@H]2N1` [Example 58, (4aR,8aS)-6-(2-(3-(trifluoromethyl)phenyl)-2,6-diazaspiro[3.4]octane-6-carbonyl)hexahydro-2H-pyrido[4,3-b][1,4]oxazin-3(4H)-one], the IC50 was determined as 70.7 nM. Under `CC(C)Oc1ccc(N2CC3(CCN(C(=O)N4CC[C@@H]5OCC(=O)N[C@@H]5C4)C3)C2)cc1` [Example 59, (4aR,8aS)-6-(2-(4-isopropoxyphenyl)-2,6-diazaspiro[3.4]octane-6-carbonyl)hexahydro-2H-pyrido[4,3-b][1,4]oxazin-3(4H)-one] stands 297 nM; under `CC(C)Oc1ccc(N2CC3(CN(C(=O)N4CC[C@@H]5OCC(=O)N[C@@H]5C4)C3)C2)cc1` [Example 60, (4aR,8aS)-6-(6-(4-isopropoxyphenyl)-2,6-diazaspiro[3.3]heptane-2-carbonyl)hexahydro-2H-pyrido[4,3-b][1,4]oxazin-3(4H)-one], 1590 nM. `O=C1CO[C@H]2CCN(C(=O)N3CCC4(C3)CN(c3ccc(N5CCCC5=O)cc3)C4)C[C@H]2N1` [Example 61, (4aR,8aS)-6-(2-(4-(2-oxopyrrolidin-1-yl)phenyl)-2,6-diazaspiro[3.4]octane-6-carbonyl)hexahydro-2H-pyrido[4,3-b][1,4]oxazin-3(4H)-one] returned an IC50 of 2300 nM.

On to `COc1ccc(N2CC3(CCN(C(=O)N4CC[C@@H]5OCC(=O)N[C@@H]5C4)C3)C2)cc1C` [Example 62, (4aR,8aS)-6-(2-(4-methoxy-3-methylphenyl)-2,6-diazaspiro[3.4]octane-6-carbonyl)hexahydro-2H-pyrido[4,3-b][1,4]oxazin-3(4H)-one], for which the IC50 worked out at 58.8 nM. Compound `O=C1CO[C@H]2CCN(C(=O)N3CCC4(C3)CN(c3ccc(Cl)c(C(F)(F)F)c3)C4)C[C@H]2N1` [Example 63, (4aR,8aS)-6-(2-(4-chloro-3-(trifluoromethyl)phenyl)-2,6-diazaspiro[3.4]octane-6-carbonyl)hexahydro-2H-pyrido[4,3-b][1,4]oxazin-3(4H)-one] showed an IC50 of 15.9 nM.
